According to patent US20020120098A1, “Enhanced stimulation of erythropoiesis” (priority 1996, published 2002):
Entries after “also recorded” stand apart in the source; their conditions may differ.

Experiments:
Format in all cases: cell-based, human
[1] = tested on: total erythroid progenitors (BFU-E+CFU-E); assay: Inhibition of succinylacetone (SA) toxicity to erythroid progenitors in CFA; details: 0.5 mM SA; 100 μM hemin, 15.6 μM HAo or HEMOLINK, 250 μM FeCl3; ambient O2, 14 days
Description: The effect of the various additives on the inhibitory effect of succinylacetone (SA), a heme synthesis inhibitor, on erythroid progenitors was determined. Primary LDMNC were cultured in methyl cellulose as described in Example 1. Cord blood LDMN were plated in the presence of 1.0 mg/ml HAo (15.6 μM; n=12) or HEMOLINK™ (15.6 μM; n=5), 100 μM hemin (n=12), 250 μM FeCl3 (n=11) or no addition (n=12), in absence or presence of 0.5 mM SA. Cultures were maintained in a humidified chamber at 37° C., 5% CO2, and ambient oxygen tensions for 14 days.
Results are expressed as the number of total erythroid progenitors (BFU-E+CFU-E) present on plates treated with the various additives in the presence of SA relative to the number present on untreated plates (no SA or other addition). Significant differences in the presence of the respective additives compared to no addition (SA only; relative progenitor number=0.31) are as indicated: *p<0.001, **p<0.0001. Significant differences in the presence of the respective additives compared to no treatment (no SA; solid line at relative erythroid progenitor number=1.0) are as indicated: +p<0.05, ++p<0.001.

[2] = tested on: erythroid progenitors; assay: Colony formation assay (CFA), cord blood LDMNC: erythroid progenitor colonies overall; details: for growth of erythroid progenitor colonies in the absence of Epo: 0 U/ml Epo; for size and colour of erythroid colonies: 2 and 0.2 U/ml Epo, ambient or 5% O2, 1.0 mg/ml HAo or HEMOLINK, 100 μM hemin, day 14
Description: This technique, referred to as the colony formation assay (CFA), is the most widely used biological assay to identify and enumerate erythroid progenitors present in hematopoietic tissue such as blood and bone marrow. Cell populations containing erythroid progenitors are plated in semi-solid suspensions of methyl cellulose, agar, low melting agarose or related substances in nutrient culture medium containing 1-3 U/ml Epo and 10 ng/ml IL-3 to specifically stimulate erythroid progenitors. Plates are incubated at 37° C. for 14 days during which time the erythroid progenitors form characteristic hemoglobinized (red) colonies. Two distinct but related erythroid progenitors can be distinguished based on colony size and morphology: BFU-E, the most primitive recognizable erythroid progenitor forms large multilobular colonies whereas the more mature CFU-E forms smaller spherical colonies.
Adult hemoglobin was purified according to U.S Pat. Nos. 5,439,591 and 5,545,328 to obtain HAo and HEMOLINK™ was prepared from HAo according to U.S. Pat. No. 5,532,352. Human umbilical cord blood intended for discard was collected from the umbilical vein of placentas immediately postpartum into 10 ml vacutainer tubes containing 143 USP units/ml sodium heparin. Low density mononuclear cells were separated from red blood cells by centrifugation over a 1.077 g/ml density gradient Cells removed from the plasma/density gradient interface were incubated overnight in a tissue culture flask with 10 ml cell culture medium containing 10% fetal bovine serum, and non-adherent LDMNC were further purified with an additional density gradient step. The LDMNC were then plated into colony formation assays (CFA) on the second day of isolation. In the CFA, LDMNC were plated at a density of 1×10^5 cells/ml in Iscoves modified Dulbeccos cell culture medium containing 0.8% methyl-cellulose, 30% fetal bovine serum, 1% bovine serum albumin, 0.1 mM 2-mercaptoethanol and 2 mM L-glutamine. Unless indicated otherwise, under standard CFA conditions 2 U/ml Epo and 10 ng/ml IL-3 are added to the formulation to stimulate hematopoietic progenitor growth, specifically BFU-E, CFU-E and CFU-GM.
Each condition was tested in duplicate in from 2-18 independent experiments. Cultures were maintained in a humidified incubator at 37° C., 5% CO2 and ambient oxygen tensions. The number of hematopoietic progenitors was scored between days 13-15 by counting the number and types of colonies present.
Erythroid progenitor colony formation assays were conducted as described in Example 1 except that cultures were incubated at either ambient oxygen tensions (˜20% O2) or 5% O2. The reduced oxygen tension of 5% O2 approximates the physiological intravascular oxygen tension in mammals. The mean fold increase in cord blood BFU-E, CFU-E and CFU-GM progenitor number at 5% O2 produced by 1.0 mg/ml HAo (15.6 μM; n=11) or HEMOLINK™ (15.6 μM; n=6), 100 μM hemin (n=10), 250 μM FeCl3 (n=6) or no addition (n=17-18), is shown FIG. 2. Results are expressed relative to control cells treated only with respective vehicles and cultured at ambient oxygen tensions (˜20% O2; fold expansion=1.0; *p<0.05, **p<0.01).
Erythroid progenitor colony formation assays were conducted as described in Example 1 except that cultures were initiated in the presence of Epo concentrations ranging from 0-2 U/ml. The mean fold increase in cord blood BFU-E, CFU-E and CFU-GM progenitor number produced by 1.0 mg/ml HAo (15.6 μM; n=9) or HEMOLINK™ (15.6 μM; n=6), 100 μM hemin (n=8), 250 μM FeCl3 (n=6), or no addition (n=9-10) in the presence of reduced Epo concentrations (0.2 U/ml) is shown in FIG. 3. Cultures were maintained at ambient oxygen tensions (˜20% O2) for 14 days. Results are expressed relative to control cells at 2 U/ml Epo treated only with the respective vehicles (solid line at fold expansion=1.0; *p<0.05, **p<0 01). Erythroid progenitor colonies were undetectable in the absence of Epo. […]

[3] = tested on: CFU-E; assay: Colony formation assay (CFA), cord blood LDMNC: CFU-E colonies; details: 5% O2, 0.2 U/ml Epo; 100 μM hemin, 1.0 mg/ml HAo or HEMOLINK; relative to controls at 2 U/ml Epo, ambient O2

Molecule	reversal of inhibitory effect of SA on erythroid progenitors (in words) [1]	number of erythroid colonies at 0.2 U/ml Epo and 5% O2 (in words) ([2]; 5% O2, 0.2 U/ml Epo, 250 μM FeCl3)	fold expansion of erythroid progenitors at 5% O2 (in words) ([2]; 5% O2, 2 U/ml Epo, 250 μM FeCl3)	fold increase in CFU-E at 0.2 U/ml Epo and 5% O2 [3]	growth of erythroid progenitor colonies in the absence of Epo [2]	concentration at which significant stimulation of erythroid progenitor colony formation is observed ([2]; 2 U/ml Epo, ambient O2)	size and colour of erythroid colonies [2]
[Cl][Fe]([Cl])[Cl] [FeCl3]	less effective than lower concentrations of hemoglobin; also recorded: unable to overcome the inhibitory effect of SA	did not significantly increase the number of erythroid colonies	did not increase the fold expansion of erythroid progenitors beyond that of the untreated controls at 5% O2				
HAo: adult human hemoglobin obtained from red blood cells and purified by displacement chromatography; uncross linked product	partially able to overcome the inhibitory effect of SA; also recorded: could partially reverse the SA toxicity			2.1 fold	could not support the growth of erythroid progenitor colonies in the absence of Epo	7.8 µM	larger and redder
C=CC1=C(C)C2=Cc3c(C=C)c(C)c4[n]3[Fe-2]35([Cl])[n]6c(c(C)c(CCC(=O)O)c6=CC6=[N+]3C(=C4)C(C)=C6CCC(=O)O)=CC1=[N+]25 [hemin]	able to completely overcome the SA inhibition of erythroid colonies; also recorded: able to overcome the inhibitory effect of SA			3.2 fold	could not support the growth of erythroid progenitor colonies in the absence of Epo		mostly smaller and less red in color
HEMOLINK™: chemically crosslinked hemoglobin prepared by treating human hemoglobin with a polyaldehyde (O-raffinose)	unable to fully restore erythroid progenitor numbers			1.7 fold	could not support the growth of erythroid progenitor colonies in the absence of Epo		larger and redder
